Reference: paper PMC6858373 (Scientific Reports, 2019)
Where two headings read alike, the source gives them in different places.

Tests used:
[1] = molecular target: T1, FGF14:Nav1.6 C-tail complex (Homo sapiens, UniProt Q92915+Q9UQD0); assay: Split-luciferase complementation assay (LCA) in Clone V double stable HEK293 cells; type: cell-based; details: for Split Luciferase Assay Z-score Set 1 / Split Luciferase Assay % Lum Set 1: biological replicate Set 1; for Split Luciferase Assay Z-score Set 1 / Split Luciferase Assay Z-score Set 2: normalized to on-plate 0.3% DMSO controls; for Split Luciferase Assay % Lum Set 1 / Split Luciferase Assay %Lum Set 2: normalized to on-plate 0.3% DMSO controls (n=16 per plate); for Split Luciferase Assay Z-score Set 2 / Split Luciferase Assay %Lum Set 2: biological replicate Set 2; for Split Luciferase Assay %Lum Avg: average of Set 1 and Set 2, normalized to 0.3% DMSO controls
T1 construct: polymerase chain reaction (PCR) amplification of the FGF14 open reading frame (nt 1–855); C-terminal fragment of Nav1.6 (amino acids 1763–1976) fused with CD4ΔC-tail (amino acids 1–395); expressed in transfected cells
T1 sequence (Q92915 1-252 isoform Q92915-2): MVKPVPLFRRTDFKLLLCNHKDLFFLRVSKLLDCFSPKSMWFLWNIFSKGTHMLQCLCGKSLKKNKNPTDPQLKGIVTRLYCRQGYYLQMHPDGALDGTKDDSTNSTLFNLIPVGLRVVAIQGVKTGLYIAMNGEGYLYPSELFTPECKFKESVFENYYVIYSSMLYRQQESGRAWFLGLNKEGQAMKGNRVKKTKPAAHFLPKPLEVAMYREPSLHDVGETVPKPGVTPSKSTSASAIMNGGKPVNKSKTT
T1 sequence (Q9UQD0 1763-1976 limits assumed): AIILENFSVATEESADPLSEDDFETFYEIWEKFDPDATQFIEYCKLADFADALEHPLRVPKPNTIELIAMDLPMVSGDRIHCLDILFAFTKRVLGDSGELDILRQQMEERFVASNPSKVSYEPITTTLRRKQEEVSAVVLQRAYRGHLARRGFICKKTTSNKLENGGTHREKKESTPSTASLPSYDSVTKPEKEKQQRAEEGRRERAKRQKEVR

[2] = molecular target: full-length P. pyralis luciferase (Photinus pyralis, UniProt P08659, K549A/L550V/N119G/N50D/S548I); type: cell-based
full-length P. pyralis luciferase, sequence (P08659 whole entry N50D/N119G/S548I/K549A/L550V, looked up): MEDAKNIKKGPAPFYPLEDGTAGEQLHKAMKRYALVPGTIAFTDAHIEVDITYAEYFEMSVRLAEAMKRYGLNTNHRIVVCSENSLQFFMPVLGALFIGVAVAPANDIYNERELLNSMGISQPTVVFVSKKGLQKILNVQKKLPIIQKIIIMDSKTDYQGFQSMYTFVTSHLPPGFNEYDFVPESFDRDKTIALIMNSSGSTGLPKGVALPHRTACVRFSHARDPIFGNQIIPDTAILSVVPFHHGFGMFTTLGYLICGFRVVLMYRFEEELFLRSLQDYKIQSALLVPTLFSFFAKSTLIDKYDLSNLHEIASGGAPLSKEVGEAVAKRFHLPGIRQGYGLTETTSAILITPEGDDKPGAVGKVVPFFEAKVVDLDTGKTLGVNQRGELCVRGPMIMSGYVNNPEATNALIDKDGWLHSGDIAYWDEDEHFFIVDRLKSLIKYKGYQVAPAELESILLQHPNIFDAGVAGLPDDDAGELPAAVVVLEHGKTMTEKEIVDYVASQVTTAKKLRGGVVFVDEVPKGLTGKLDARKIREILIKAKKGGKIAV

[3] = system: Clone V cells
[4] = CC_NCI screening, normalized to on-plate 0.3% DMSO controls
[5] = CC_NCI screening, LCA luminescence
[6] = CC_NCI screening, full-length luciferase counter-screen luminescence, normalized to on-plate 0.3% DMSO controls
[7] = CC_NCI screening, full-length luciferase counter-screen, normalized to on-plate 0.3% DMSO controls

SMILES | Split Luciferase Assay % Lum Set 1 [1, 5] [%] | Split Luciferase Assay %Lum Set 2 [1, 5] [%] | Split Luciferase Assay Z-score Set 1 ([1]; CC_NCI screening, LCA) | Split Luciferase Assay Z-score Set 2 ([1]; CC_NCI screening, LCA) | Split Luciferase Assay %Lum Avg ([1]; CC_NCI screening) [%] | Luciferase Assay % Lum [2, 6] [%] | Luciferase Assay Z-score [2, 7] | Toxicity Assay % Fluor ([3]; human, 16 h, 30 µM) [%] | Toxicity Assay Z-score ([3]; human, 16 h, 30 µM) | other results
Nc1ccccc1NC(=O)c1ccc(CNC(=O)OCc2cccnc2)cc1 [MS-275] |  |  |  |  |  |  |  |  |  | Split Luciferase Assay Z-score Set 1 ([1]; CC_NCI screening): -2.96; Split Luciferase Assay % Lum Set 1 ([1]; CC_NCI screening): 63.38%; Split Luciferase Assay Z-score Set 2 ([1]; CC_NCI screening): -2.38; Split Luciferase Assay %Lum Set 2 ([1]; CC_NCI screening): 70.74%; Split Luciferase Assay %Lum Avg [1]: 67.06%; Luciferase Assay % Lum (full-length luciferase counter-screen) [2, 4]: 107.21%; Luciferase Assay Z-score (full-length luciferase counter-screen) [2, 4]: 0.92; Toxicity Assay % Fluor (CTB cell viability fluorescence) [3]: 101.17%; Toxicity Assay Z-score (CTB cell viability) [3]: 0.16
CCn1c(-c2nonc2N)nc2cnc(Oc3cccc(NC(=O)c4ccc(OCCN5CCOCC5)cc4)c3)cc21 [GSK 269962A] | 26.42 | 31.21 | -5.95 | -5.60 | 28.81 | 79.80 | -2.59 | 101.41 | 0.20 | 
O=C(CCBr)N1CCN(C(=O)CCBr)CC1 [Pipobroman] | 125.34 | 121.72 | 2.05 | 1.77 | 123.53 |  |  | 98.07 | -0.27 | Luciferase Assay % Lum [2]: 102.03%; Luciferase Assay Z-score [2]: 0.26
NC(=O)c1ccc2[nH]ccc2c1 [SD 169] |  |  |  |  |  |  |  |  |  | Split Luciferase Assay Z-score Set 1 ([1]; CC_NCI screening): 2.14; Split Luciferase Assay % Lum Set 1 ([1]; CC_NCI screening): 126.43%; Split Luciferase Assay Z-score Set 2 ([1]; CC_NCI screening): 1.34; Split Luciferase Assay %Lum Set 2 ([1]; CC_NCI screening): 116.51%; Split Luciferase Assay %Lum Avg [1]: 121.47%; Luciferase Assay % Lum (full-length luciferase counter-screen) [2, 4]: 109.31%; Luciferase Assay Z-score (full-length luciferase counter-screen) [2, 4]: 1.19; Toxicity Assay % Fluor (CTB cell viability fluorescence) [3]: 104.03%; Toxicity Assay Z-score (CTB cell viability) [3]: 0.56
Cc1cn(-c2cc(NC(=O)c3ccc(C)c(Nc4nccc(-c5cccnc5)n4)c3)cc(C(F)(F)F)c2)cn1 [NILOTINIB] | 109.04 | 122.76 | 0.73 | 1.85 | 115.90 | 102.54 | 0.33 |  |  | Toxicity Assay % Fluor [3]: 88.70%; Toxicity Assay Z-score [3]: -1.58
COc1ccc2c(c1)CC[C@@H]1[C@@H]2CC[C@]2(C)[C@@H](NCCCCCCN3C(=O)C=CC3=O)CC[C@@H]12 [U 73122] | 128.60 | 129.00 | 2.31 | 2.36 | 128.80 | 109.98 | 1.28 |  |  | Toxicity Assay % Fluor [3]: 102.60%; Toxicity Assay Z-score [3]: 0.36
CS(=O)(=O)c1ccc(C(=O)Nc2ccc(Cl)c(-c3ccccn3)c2)c(Cl)c1 [Vismodegib, reference compound] | 175.35 | 147.72 | 6.09 | 3.88 | 161.54 | 90.92 | -1.16 | 93.24 | -0.95 | Z-score (LCA primary screening) ([1]; 30 µM, 384-well, average of primary screening (n = 2), vs on-plate 0.3% DMSO): 4.99; EMax (% Luminescence) ([1]; agonists, Clone V cells, 384-well, normalized to DMSO): 161.54 % Luminescence; EC50 ([1]; estimated, 8-point dose response 0.25-30 µM, n = 4 per concentration, library compounds, read-out: EC50): 1910 nM
COc1cc([C@@H]2c3cc4c(cc3[C@@H](O[C@@H]3O[C@@H]5CO[C@@H](C)O[C@H]5[C@H](O)[C@H]3O)[C@H]3COC(=O)[C@H]23)OCO4)cc(OC)c1O [Etoposide] | 77.51 | 72.82 | -1.82 | -2.21 | 75.17 | 103.75 | 0.48 | 88.49 | -1.61 | 
NC(=O)c1ncn([C@@H]2O[C@H](CO)[C@@H](O)[C@H]2O)c1N [AICAR] |  |  |  |  |  |  |  |  |  | Split Luciferase Assay Z-score Set 1 ([1]; CC_NCI screening): 0.03; Split Luciferase Assay % Lum Set 1 ([1]; CC_NCI screening): 100.34%; Split Luciferase Assay Z-score Set 2 ([1]; CC_NCI screening): 0.84; Split Luciferase Assay %Lum Set 2 ([1]; CC_NCI screening): 110.27%; Split Luciferase Assay %Lum Avg [1]: 105.31%; Luciferase Assay % Lum (full-length luciferase counter-screen) [2, 4]: 107.04%; Luciferase Assay Z-score (full-length luciferase counter-screen) [2, 4]: 0.90; Toxicity Assay % Fluor (CTB cell viability fluorescence) [3]: 108.29%; Toxicity Assay Z-score (CTB cell viability) [3]: 1.16
Cc1cn(-c2cc(NC(=O)c3ccc(C)c(Nc4nccc(-c5cccnc5)n4)c3)cc(C(F)(F)F)c2)cn1 [Nilotinib] | 126.43 | 113.39 | 2.14 | 1.09 | 119.91 | 94.65 | -0.68 | 85.20 | -2.07 | 
CO[C@H]1/C=C\C=C(/C)C(=O)NC2=CC(=O)C(NCCN(C)C)=C(C[C@@H](C)C[C@H](OC)[C@H](O)[C@@H](C)/C=C(\C)[C@@H]1OC(N)=O)C2=O [Compound 17-DMAG] | 40.55 | 65.54 | -4.80 | -2.80 | 53.04 | 84.54 | -1.98 |  |  | Toxicity Assay % Fluor [3]: 54.29%; Toxicity Assay Z-score [3]: -6.39
COc1cc2nccc(Oc3ccc(NC(=O)C4(C(=O)Nc5ccc(F)cc5)CC4)cc3)c2cc1OC [Cabozantinib] | 27.50 | 27.05 | -5.86 | -5.94 | 27.28 | 67.75 | -4.13 | 93.87 | -0.86 | 
O=c1[nH]nc(Sc2ncc([N+](=O)[O-])s2)n1-c1ccc2c(c1)OCCO2 [JNK INHIBITOR X] |  |  |  |  |  |  |  |  |  | Split Luciferase Assay Z-score Set 1 ([1]; CC_NCI screening): -7.97; Split Luciferase Assay % Lum Set 1 ([1]; CC_NCI screening): 1.41%; Split Luciferase Assay Z-score Set 2 ([1]; CC_NCI screening): -7.88; Split Luciferase Assay %Lum Set 2 ([1]; CC_NCI screening): 3.12%; Split Luciferase Assay %Lum Avg [1]: 2.27%; Luciferase Assay % Lum (full-length luciferase counter-screen) [2, 4]: 4.80%; Luciferase Assay Z-score (full-length luciferase counter-screen) [2, 4]: -12.19; Toxicity Assay % Fluor (CTB cell viability fluorescence) [3]: 82.79%; Toxicity Assay Z-score (CTB cell viability) [3]: -2.41
Cc1cc(N2CCOCC2)cc2[nH]c(-c3c(NC[C@@H](O)c4cccc(Cl)c4)cc[nH]c3=O)nc12 [BMS-536924] | 56.86 | 40.57 | -3.49 | -4.84 | 48.71 | 93.73 | -0.80 |  |  | Toxicity Assay % Fluor [3]: 86.04%; Toxicity Assay Z-score [3]: -1.95
